Test results published in patent US5663165A, “Hypolipidaemic benzothiazepine compounds” (Glaxo Wellcome Inc., priority 1992, dated 1997).

System: sodium-dependent 3H taurocholate uptake in rat distal ileal brush border membrane vesicles
Experiment: In vitro inhibition of bile acid uptake
Assay type: biochemical
Details: 10 μM 3H taurocholate, 30 seconds at 24° C., active (sodium-dependent) uptake vs control
Procedure: In vitro inhibition of bile acid uptake
Freshly prepared rat distal ileal brush border membrane vesicles (about […] vesicle protein) were incubated for 30 seconds at 24° C. in an incubation mixture comprising 10 μM ^3 H taurocholate, 100 mM NaCl (or KCl) and 80 mM mannitol in 20 mM Hepes Tris pH 7.4. Each test compound was dissolved in ethanol (or water) and then diluted with incubation mixture to an ethanol concentration of not more than 1% v/v. The incubation was terminated by rapid dilution and filtration and the filter washed with an ice-cold isotonic sodium-free buffer.
The uptake of ^3 H taurocholate was measured by the radioactivity remaining on the filter and converted to pmoles/mg vesicle protein. The active, ie sodium-dependent, uptake was obtained by subtracting the passive uptake measured in 100 mM KCl from the total uptake measured in 100 mM NaCl. The active uptake for each test compound was compared with a control active uptake and the results expressed at % inhibition of bile acid uptake.

Structure (SMILES): CCCC[C@]1(CC)CS(=O)(=O)c2ccccc2[C@@H](c2ccccc2)N1 [Synthetic Example 1, (-)-(RR)-3-butyl-3-ethyl-2,3,4,5-tetrahydro-5-phenyl-1,4-benzothiazepine-1,1-dioxide]
- % inhibition of bile acid uptake (0.3 μM test compound): 55%
- % inhibition of bile acid uptake (1 μM test compound): 69%
- % inhibition of bile acid uptake (3 μM test compound): 85%
- % inhibition of bile acid uptake (10 μM test compound): 96%
